Experimental data reported in paper PMC5818482, “Experimental study of the anti-tumour activity and pharmacokinetics of arctigenin and its valine ester derivative” (Scientific Reports, 2018).
In brackets after ≈: the same amount, converted by molar mass. Several values for one entry are separate records, joined by “and”; a condition that tells them apart may be missing. Equal entries are not always repeated. Where two headings read alike, the source gives them in different places.

Key:
[1] = Nitrite scavenging activity, diazo coupling spectrophotometric method (in vitro anti-tumour experiment)
From the text: Numerous methods for nitrite clearance have been reported, such as spectrophotometric, chromatographic-mass spectrometric, electrochemical, and fluorescence methods. Considering various factors, we decided to use diazo coupling spectrophotometry to perform this experiment. […] On the other hand, it may be that ARG-V also has the ability to bind nitrite such that the nitrite content decreased, achieving the purpose of clearing nitrite.
Our team has studied the […] scavenging activity of ARG and ARG-V using diazo coupling spectrophotometric method.

[2] = Solubility according to the Chinese Pharmacopoeia, 2015 edition; format: physicochemical; conditions: for Solubility in Acetonitrile: solvent acetonitrile; for Solubility in Acetonitrile:water 45:55: solvent acetonitrile:water 45:55; for Solubility in Cloroform: solvent chloroform; for Solubility in Ethyl acetate: solvent ethyl acetate; for Solubility in Water: solvent water
Method: Solubility is a physical property of the drug. The reaction was performed according to the Chinese Pharmacopoeia, 2015 edition.

H22 tumour-bearing mice = experiment: Serum ALT, AST, BUN and CRE in H22 tumour-bearing mice; conditions: for BUN / CRE: Fig. 2(b); for Serum ALT / Serum AST: Fig. 2(a)
Method: (§1) To prepare the ascitic tumour-bearing model, 0.2 mL of the cell suspension (1 × 10^5 cells/mouse) was injected into the shoulder of the right limb subcutaneously in each mouse. Twenty-four hours after the tumour inoculation with H22 cells, the ICR mice were divided into 7 groups as follows: the normal group, the model group, the cyclophosphamide (CTX) group, the ARG group, the high dose ARG-V group, the middle dose ARG-V group, and the low dose ARG-V group. The positive control group received CTX at a dosage of 25 mg/kg by intraperitoneal injection. The model group and the normal group were treated with the same amount of normal saline by P.O. once a day. The mice were given an ARG suspension solution mixed with sodium carboxymethyl cellulose at a daily dose of 40 mg/kg, and ARG-V dissolved in saline at different dosages was administered orally. The mice in each group were treated continuously for 14 days. Before and after each drug administration, the size of the tumours were measured, and the weights of the mice were recorded. Twenty-four hours after the last administration, the mice were killed by cervical dislocation, and blood samples were collected from the eyes of the mice. The tumour, spleen, and thymus of the mice were taken out and weighed on an electronic balance.
AST and ALT are clinical indexes of liver function, used in medicine to judge whether the liver is damaged. BUN and CRE are used to judge whether the kidney is damaged. They were analysed by a commercially available reagent kit according to the instructions.

[3] = parameters: method as in PMID 27685612; conditions: patients with advanced pancreatic cancer refractory to gemcitabine; second peaks indicate enterohepatic circulation; cited from earlier work
[4] = system: H22 hepatocellular carcinoma; experiment: In vivo anti-tumour experiment in H22 tumour-bearing mice (tumour growth, body weight, immune organ indexes); conditions: 14 days
From the text: SPF (specific pathogen free) grade, male ICR mice with body weights ranging from 19 to 21 g were obtained from the Laboratory Animal Quality Testing Center of Jilin Province. The ICR mice were divided into 7 groups as follows: the normal group, the model group, the cyclophosphamide (CTX) group, the ARG group, the high dose ARG-V group, the middle dose ARG-V group and the low dose ARG-V group. H22 hepatocarcinoma cells were purchased from the Institute of Biochemistry and Cell Biology, CAS.
as §1

[5] = Pharmacokinetics after oral (intragastric) administration to rats, plasma ARG by HPLC, 3P97 fit; format: in vivo, Wistar rats; conditions: for AUC / CL/F(s): intragastric, X ± SD, n = 6; for AUC value: oral
Method: Male Wistar rats (8 weeks, 230–250 g) were purchased from Liaoning Changsheng Biotechnology Co., Ltd. (Certificate No. SCXK-2015-0001) and acclimated to the laboratory environment for 1 week.
After the frozen plasma thawed, a 0.2 mL rat plasma sample was placed in an Eppendorf tube containing 5 µL of the IS working solution and 1 mL of acetonitrile with 0.1% formic acid and mixed evenly with a turbine mixer for 3 minutes. It was then separated by centrifugation (12000 rpm, 10 min, 4 °C). The supernatant was withdrawn and evaporated to dryness under N2. The dry residue was reconstituted by mixing it with 50 μL of acetonitrile for 1 minute and separated by centrifugation (16000 rpm, 5 min, 4 °C), and a 20 μL aliquot was injected into the HPLC system for analysis.
The rats received ARG and ARG-V by oral administration. Blood samples were obtained via the oculi chorioideae vein before oral administration and at 1, 3, 5, 10, 15, 30, 45, 60, 90, 120, 150, 180, 240, and 360 min after administration. The whole blood samples were separated by centrifugation (8000 rpm, 10 min), and the plasma was obtained and stored at −20 °C until analysis.
Analytes were separated on a Thermo BDS HYPERSIL C18 column (4.6 × 250 mm, 5 μm) at a flow rate of 1.0 mL/min. The column was maintained at 30 °C. The mobile phase consisted of acetonitrile and 0.1% formic acid water (45:55 v/v). Detection was done at a wavelength of 280 nm.
The values are presented as the mean ± standard deviation (SD). The concentration-time curve was drawn, and data were processed using the 3P97 software.

Beagle dogs = system: Beagle dogs; parameters: method as in earlier work; conditions: cited from earlier work
[6] = Stability of ARG QC samples in rat plasma; format: in vitro ADME; conditions: three concentrations; room temperature 12 hours, −20 °C for a month, three freeze-thaw cycles
Method: The ARG stock solution was diluted with plasma to make quality control (QC) samples, and the QC samples were prepared at three concentrations of low, medium and high (0.02, 0.1, and 2 μg/mL). The QC samples were kept at room temperature for 12 h, and freeze-thaw cycles were repeated 3 times. The QC samples were kept at −20 °C for 30 days.

[7] = system: serum cytokines TNF-α, IL-2, VEGF; experiment: Serum cytokines (TNF-α, IL-2, VEGF) by ELISA in H22 tumour-bearing mice; format: in vivo, ICR mice; conditions: for Expression level of IL-2: compared to the tumour model group; for Expression level of IL-2 / Serum TNF-α level: Fig. 2(c); for Serum VEGF: Fig. 2(d)
Method: as §1
The serum levels of the cytokines IL-2, IL-6, VEGF and TNF-α were analysed using a commercially available ELISA kit according to the manufacturer’s instruction.

[8] = concentration 0.125 mg/mL, in % (unit assumed)
[9] = concentration 0.25 mg/mL, in % (unit assumed)
[10] = concentration 0.5 mg/mL, in % (unit assumed)
[11] = concentration 1 mg/mL, in % (unit assumed)
[12] = concentration 2 mg/mL, in % (unit assumed)
[13] = concentration 4 mg/mL, in % (unit assumed)
[14] = 40 mg/kg oral daily, mean ± SD, n = 8
[15] = first of three concentrations (low dosage)
[16] = second of three concentrations (middle dosage)
[17] = third of three concentrations (high dosage)
[18] = 25 mg/kg intraperitoneal, mean ± SD, n = 8

IC50 (nitrite scavenging) [1] [µg/mL] | SMILES | Clearance rate on nitrite [1, 8] | Clearance rate on nitrite [1, 9] | Clearance rate on nitrite [1, 10] | Clearance rate on nitrite [1, 11] | Clearance rate on nitrite [1, 12] | Clearance rate on nitrite [1, 13] | Solubility in Acetonitrile [2] | Solubility in Acetonitrile:water 45:55 [2] | Solubility in Cloroform [2] | Solubility in Ethyl acetate [2] | Solubility in Water [2] | BUN (H22 tumour-bearing mice; compared to the CTX group) | Serum ALT (H22 tumour-bearing mice; compared to the model group) | Serum AST (H22 tumour-bearing mice; compared to the model group) | Inhibitory rate ([4]; 40 mg/kg oral daily) | Tumor weight [4, 14] | AUC value [5, 15] [ng·h/mL] | AUC value [5, 16] [ng·h/mL] | AUC value [5, 17] [ng·h/mL] | further results
– | O=P1(N(CCCl)CCCl)NCCCO1 (stereo not drawn) [CTX, Cyclophosphamide] | – | – | – | – | – | – | – | – | – | – | – | – | obviously increased | obviously increased | – | – | – | – | – | Increase of body weight ([4]; 25 mg/kg intraperitoneal): 4.37 g; Inhibitory rate ([4]; 25 mg/kg intraperitoneal): 72.06%; Spleen index [4, 18]: 4.40 ± 0.40 mg/g; Thymus index [4, 18]: 1.24 ± 0.20 mg/g; Tumor weight [4, 18]: 0.50 ± 0.11 g; Expression level of IL-2 [7]: obviously decreased; Serum TNF-α level ([7]; compared with the model group): significantly decreased; Serum VEGF ([7]; compared with the model group): decreased significantly
2190 (≈ 4.64 mM) | COc1ccc(CC2COC(=O)C2Cc2ccc(OC(=O)C(N)C(C)C)c(OC)c2)cc1OC (stereo not drawn) [ARG-V] | 20.22 ± 0.00 | 27.90 ± 0.05 | 35.21 ± 0.07 | 45.51 ± 0.01 | 64.04 ± 0.01 | 69.10 ± 0.04 | slight soluble | very soluble | freely soluble | almost insoluble | freely soluble | significant difference | decreased | decreased | 69.2% and 69.27% | 0.55 ± 0.15^**,aa g | 253 | 391 | 574 | Increase of nitrite removal ability compared with ARG ([1]; concentration 4 mg/mL): more than 75%; BUN (H22 tumour-bearing mice; compared to the model group): decreased significantly; CRE (H22 tumour-bearing mice; compared to the model group): decreased significantly; Inhibitory rate ([4]; 20 mg/kg oral daily): 42.46%; Tumor weight ([4]; 20 mg/kg oral daily, mean ± SD, n = 8): 1.03 ± 0.19^**,##,a g; Inhibitory rate ([4]; 80 mg/kg oral daily): 63.13%; Tumor weight ([4]; 80 mg/kg oral daily, mean ± SD, n = 8): 0.66 ± 0.17^**,#,aa g; Expression level of IL-2 [7]: significantly higher; Serum VEGF ([7]; compared with the model group): decreased; Serum TNF-α level ([7]; three doses, compared with the CTX group): increased significantly
690 (≈ 3.92 mM) | O=C1O[C@H]([C@@H](O)CO)C(O)=C1O [VC] | – | – | – | – | – | – | – | – | – | – | – | – | – | – | – | – | – | – | – | Clearance rate on nitrite ([1]; concentration 0.125 mg/mL): 7.30 ± 0.06; Clearance rate on nitrite ([1]; concentration 0.25 mg/mL): 17.23 ± 0.00; Clearance rate on nitrite ([1]; concentration 0.5 mg/mL): 25.84 ± 0.03; Clearance rate on nitrite ([1]; concentration 1 mg/mL): 54.49 ± 0.02; Clearance rate on nitrite ([1]; concentration 2 mg/mL): 96.32 ± 0.00; Clearance rate on nitrite ([1]; concentration 4 mg/mL): 97.75 ± 0.00

SMILES | IC50 (nitrite scavenging) [1] [µg/mL] | Clearance rate on nitrite [1, 8] | Clearance rate on nitrite [1, 9] | Clearance rate on nitrite [1, 10] | Clearance rate on nitrite [1, 11] | Clearance rate on nitrite [1, 12] | Clearance rate on nitrite [1, 13] | Solubility in Acetonitrile [2] | Solubility in Acetonitrile:water 45:55 [2] | Solubility in Cloroform [2] | Solubility in Ethyl acetate [2] | Solubility in Water [2] | BUN (H22 tumour-bearing mice; compared to the CTX group) | Serum ALT (H22 tumour-bearing mice; compared to the model group) | Serum AST (H22 tumour-bearing mice; compared to the model group) | Inhibitory rate ([4]; 40 mg/kg oral daily) | Tumor weight [4, 14] | AUC value [5, 15] [ng·h/mL] | AUC value [5, 16] [ng·h/mL] | AUC value [5, 17] [ng·h/mL] | further results
COc1cc(C[C@H]2C(=O)OC[C@@H]2Cc2ccc(OC)c(OC)c2)ccc1O [ARG, Arctigenin] | 17490 (≈ 47 mM) | 17.60 ± 0.02 | 23.41 ± 0.02 | 27.72 ± 0.03 | 31.09 ± 0.02 | 34.46 ± 0.02 | 39.14 ± 0.07 | very soluble | very soluble | freely soluble | freely soluble | almost insoluble | no significant difference | decreased | decreased | 26.26% | 1.32 ± 0.34 g | 228 | 316 | 424 | CRE (H22 tumour-bearing mice; compared to the CTX group): no significant difference; Form of ARG in patients [3]: exists as arctigenin glucuronide (AGG); AUC ([5]; high dosage): 25419.859 ± 5497.001 (ng/mL)*min; CL/F(s) ([5]; high dosage): 0.009 ± 0.003 mg/kg/min/(ng/mL); AUC ([5]; low dosage): 13687.547 ± 3050.502 (ng/mL)*min; CL/F(s) ([5]; low dosage): 0.004 ± 0.001 mg/kg/min/(ng/mL); AUC ([5]; middle dosage): 18971.963 ± 5515.267 (ng/mL)*min; CL/F(s) ([5]; middle dosage): 0.006 ± 0.003 mg/kg/min/(ng/mL); Toxicity in Beagle dogs (Beagle dogs; 60 mg/kg group, subcutaneous injection, except the stimulus response at the administration location): no overt toxicity; Toxicity in Beagle dogs (Beagle dogs; repeated subcutaneous injection of large doses): can induce injury to the liver and biliary duct; Stability in rat plasma QC samples [6]: good results
